The text below walks through data of ChEMBL document CHEMBL1129111, “Neuroprotective (+) 3S, 4S cannabinoids with modified 5-side chain” (Bioorg Med Chem Lett, 1996).

Assay [1] deals with Glutamate NMDA receptor (Rattus norvegicus) (UniProt P35439+Q00959+Q00960+Q00961+Q62645+Q8VHN2+Q9R1M7). The experiment in a line: Compound was tested for its ability to inhibit [3H]- MK-801 binding to NMDA receptor in rat forebrain membranes at concentration of 100 uM. In kind it is cell membranes. The note with it: Membrane.
The target of a further assay is Glutamate NMDA receptor. As to the kind of experiment: Compound was tested for its ability to displace [3H]- MK-801 binding to NMDA receptor in rat forebrain membranes. In kind it is cell membranes.
Assay [2] is filed under the species Rattus norvegicus. As to the kind of experiment: Compound was tested for neuronal cell toxicity in cortical neuron cell cultures extracted from fetal rat brains at concentration of 10 uM. The format is functional, Brain.
The species entered for assay [3] is Rattus norvegicus. As to the kind of experiment: Compound was tested for the protection of neurons against NMDA toxicity at concentration of 10 uM. In kind it is functional.
The species named for assay [4] is Rattus norvegicus. The experiment in a line: Compound was tested for neuronal cell toxicity in cortical neuron cell cultures extracted from fetal rat brains at concentration of 20 uM. In kind it is functional, Brain.

For `CCCCCCC(C)(C)c1cc(O)c2c(c1)OC(C)(C)C1CC=C(CO)C[C@H]21` (some centres undefined), the inhibition (as a rule, how much of the control response was suppressed) in assay [1] stood at 90%. The half-inhibitory concentration (IC50) (in general, the concentration that gives 50% inhibition) at Glutamate NMDA receptor worked out at 10 µM. Further, the Morbidity in the assay filed under Rattus norvegicus [2] was found to be 25%. The Protection in the assay filed under Rattus norvegicus [3] came out at 63%.
In turn, `CCCC(C)(C)c1cc(O)c2c(c1)OC(C)(C)C1CC=C(CO)C[C@H]21` (some centres undefined) registered an inhibition in assay [1] of 80%. For the same molecule, the IC50 at Glutamate NMDA receptor was 30 µM. Also, the Morbidity in the assay filed under Rattus norvegicus [2] and in the assay listed under Rattus norvegicus [4] was 0% in each case. For the same molecule, in the assay listed under Rattus norvegicus [3], the Protection is listed as 36%.
With `CC(C)(C)c1cc(O)c2c(c1)OC(C)(C)C1CC=C(CO)C[C@H]21` (some centres undefined), in assay [1], the inhibition came out at 83%. In addition, at Glutamate NMDA receptor, the IC50 was determined as 30 µM. In addition, the Morbidity in the assay listed under Rattus norvegicus [2] is listed as 15%; in the assay filed under Rattus norvegicus [4], 36%. The molecule further gave a Protection in the assay filed under Rattus norvegicus [3] of 24%.
